Assay: Single dose toxicity study in dogs
Type: in vivo, dog
Conditions: beagle dogs, single oral dose 10, 30, 100 mg/kg
Experimental: Single Dose Toxicity Study in Dogs
The study was carried out with TOYO beagles (KITAYAMA LABES CO., LTD., Hongou farm), four dogs per each sex. They were 5-month old on arrival at testing facility, and were 10-month old when started to be administered. Basal diet was 300 g/day, DS-A (Oriental Yeast Co., Ltd.), and drinking water was tap water. Allocation to the groups was carried out so that an animal number was allocated in order of quarantine number for males and females respectively whose clinical signs and results of clinical laboratory test were considered to be normal.
As to a dosing suspension, 0.5 w/v % HPMC aqueous solution was used as a vehicle, the required amounts of test compound were pre-weighed for each dose group, and it was prepared in a specified concentration with mortar and pestleon the day of administration. Dose volume was 5 mL/kg (calculated on the basis of body weight measured on the day of administration). […]
A clinical sign was observed before administration and during TK blood sampling on the day of administration, and once in the morning every day on the day other than administration. Body weight was measured in the pre-dosing term (−5th day, −1st day), on the day of administration and on the next day after administration.
Feeding was carried out every day, and food consumption (g/day) was calculated from the remaining food in the next morning after feeding. […]

With `Cc1c(C(=O)Nc2cnc(N3CCC(O)CC3)c(C3CC3)c2)cnn1-c1ccc(Cl)cc1` [Example 39, 1-(4-chlorophenyl)-N-[5-cyclopropyl-6-(4-hydroxypiperidin-1-yl)pyridin-3-yl]-5-methyl-1H-pyrazole-4-carboxamide] the “Changes caused by administration (clinical signs, body weight, food consumption, hematology, blood chemistry incl. ALT, AST, TBil)” value was “no changes caused by administration were found in any doses”.

Reference: patent publication US9527859B2, “Amidopyridine derivative and use thereof” (Mitsubishi Tanabe Pharma Corporation, priority 2012, dated 2016)
